Assay results published in US20090069442A1, “Therapeutic Agent for Sensory Abnormality” (priority 2005, published 2009).

Experiments:
[1] = tested on: sciatic nerve entrapment model rats (Bennett model rats); assay: Injury-preventive effect in partial nerve injury models, paw pressure (Randall-Selitto) method; type: in vivo, Spraugue-Dawley rats
Procedure: (§1) For a hyperalgesia model animal, sciatic nerve entrapment model rats (Bennett model rats) serving as partial nerve injury models, were used. That is, four-week-old male Spraugue-Dawley rats (Japan SLC, Inc.) were housed under a constant temperature and humidity condition for a week. Then, under anesthesia with pentobarbital (50 mg/kg), the sciatic nerve in the left hind paw was stripped from tissue, and raised using tweezers to slightly stretch the axon part. […] The right hind paw was left untreated and used as a normal paw. The operated site was disinfected with Isodine everyday in the first post-operative week to prevent infection.
As the test substance, compound 24 synthesized in Preparation Example 24 was used.
The nerve-injured paw (operated side) and the normal paw (untreated side) of each individual were previously subjected to an analgesic test, subsequently followed by Bennett operation. Furthermore, a single dose of the test substance (8 mg/kg) was intraperitoneally administered from the day of the operation, everyday for a week. The control group was administered with the vehicle of the test substance during the same period. After one week from the start of administration, the nerve injured paw (operated side) and the normal paw (untreated side) of each rat were again subjected to an analgesic test. […]

[2] = tested on: STZ-induced diabetic model mice; assay: Improving effect in dullness models, formaldehyde-induced licking and biting behavior; type: in vivo, ddY mice; settings: a week of intraperitoneal administration (8, 24 and 40 mg/kg) with the STZ administration; 1% formaldehyde into plantar; FIG. 4
Procedure: Four-week-old male ddY mice were administered with a single dose of streptozotocin (hereunder, also referred to as STZ) (200 mg/kg) by tail vein injection, everyday for a week. For 24 hours after STZ administration, the rats were allowed to freely take a 10% glucose solution instead of drinking water, and then allowed to freely take distilled water. As the test substance, compound 24 synthesized in Preparation Example 24 was used. Concurrently with the start of STZ administration, the test substance-administration group was intraperitoneally administered with a single dose of the test substance (8 mg/kg, 24 mg/kg, and 40 mg/kg) everyday for a week. The control group was administered with the vehicle of the test substance during the same period. The blood glucose level of the tail venous blood was measured by a blood glucose meter (DEXTER ZII: Bayer Medical Ltd.). Individuals with a blood sugar level of 400 mg/dL or more, were used for the experiment. After a week of STZ administration, the mice were subcutaneously injected with 1% formaldehyde solution (20 μL) into the plantar of the left hind paw. The total time spent for licking (licking of plantar of the left hind paw) behavior and biting (biting of plantar of the left hind paw) behavior was scored every 5 minutes after administration, for 60 minutes.

[3] = tested on: sciatic nerve entrapment model rats (Bennett model rats); assay: Analgesic effect in partial nerve injury models, paw pressure (Randall-Selitto) method; type: in vivo, Spraugue-Dawley rats; settings: for pain threshold of the nerve-injured paw: started after hyperalgesia confirmed, FIG. 2
Procedure: as §1, with “for use” for “and used”
As the test substance, 3-(15-hydroxypentadecyl)-2,4,4-trimethyl-2-cyclohexen-1-one (hereafter, also referred to as compound 24) synthesized in Preparation Example 24 was used.
Rats showing reduction of pain threshold by 30% or more in the nerve-injured paw, and change in pain threshold within a range of 5% in the normal paw, as compared to preoperative values, were used for the experiment. Prior to administration of the test substance, the nerve-injured paw (operated side) and the normal paw (untreated side) of each individual were subjected to an analgesic test. Furthermore, the test substance-administered group was intraperitoneally administered with a single dose of the test substance (8 mg/kg, 24 mg/kg, and 40 mg/kg) everyday for a week. The control group was administered with the vehicle of the test substance during the same period. After one week from the start of administration, the nerve-injured paw (operated side) and the normal paw (untreated side) of each rat were again subjected to an analgesic test.
The paw pressure (Randall-Selitto) method using pressure stimuli was employed as the analgesic test. Mechanical pressure stimuli were applied on the dorsal portion of the rat hind paw by an analgesimeter, and the minimum value of pressure stimulus at which vocalization or withdrawal occurred was defined as pain threshold. In the measurement of pain threshold according to the paw pressure method, a rat has to be held down and restrained. […]

## O=C1C=C(CCCCCCCCCCCO)CCC1 [Preparation Example 2, 3-(11-hydroxyundecyl)-2-cyclohexen-1-one]
other
  melting point: 34 to 35 °C

## O=C1C=C(CCCCCCCCCCCCO)CCC1 [Preparation Example 3, 3-(12-hydroxydodecyl)-2-cyclohexen-1-one]
other
  melting point: 35 to 36 °C

## O=C1C=C(CCCCCCCCCCCCCO)CCC1 [Preparation Example 4, 3-(13-hydroxytridecyl)-2-cyclohexen-1-one]
other
  melting point: 42 to 43 °C

## O=C1C=C(CCCCCCCCCCCCCCO)CCC1 [Preparation Example 5, 3-(14-hydroxytetradecyl)-2-cyclohexen-1-one]
other
  melting point: 44 to 45 °C

## CC1=C(CCCCCCCCCCCCCCCO)C(C)(C)CCC1=O [compound 24, 3-(15-hydroxypentadecyl)-2,4,4-trimethyl-2-cyclohexen-1-one]
[1]; 8 mg/kg intraperitoneally from the day of the operation, everyday for a week, FIG. 3
  pain threshold of the nerve-injured paw after the Bennett operation: no significant change in pain threshold
[1]; normal paw (untreated side), 8 mg/kg intraperitoneally everyday for a week
  pain threshold of the normal paw: no significant change in pain threshold
[2]
  Phase II pain response (total time spent for licking and biting behavior): improved Phase II torpor
[3]; 24 mg/kg intraperitoneally once a day for a week
  pain threshold of the nerve-injured paw: significant increase in pain threshold
[3]; 40 mg/kg intraperitoneally once a day for a week
  pain threshold of the nerve-injured paw: significant increase in pain threshold
[3]; normal paw (untreated side), after the one-week administration period, intraperitoneal
  pain threshold of the normal paw: no significant change in pain threshold
